Results from PMC2562941 (Molecular carcinogenesis, 2008).

Tests used:
[1] = target: T1, His-tagged COX-2 (Homo sapiens, UniProt P35354); assay: Surface plasmon resonance; assay type: binding; details: each at 300 μM; 0.1 μg His-COX-2; 25 °C
T1 sequence (P35354 18-604): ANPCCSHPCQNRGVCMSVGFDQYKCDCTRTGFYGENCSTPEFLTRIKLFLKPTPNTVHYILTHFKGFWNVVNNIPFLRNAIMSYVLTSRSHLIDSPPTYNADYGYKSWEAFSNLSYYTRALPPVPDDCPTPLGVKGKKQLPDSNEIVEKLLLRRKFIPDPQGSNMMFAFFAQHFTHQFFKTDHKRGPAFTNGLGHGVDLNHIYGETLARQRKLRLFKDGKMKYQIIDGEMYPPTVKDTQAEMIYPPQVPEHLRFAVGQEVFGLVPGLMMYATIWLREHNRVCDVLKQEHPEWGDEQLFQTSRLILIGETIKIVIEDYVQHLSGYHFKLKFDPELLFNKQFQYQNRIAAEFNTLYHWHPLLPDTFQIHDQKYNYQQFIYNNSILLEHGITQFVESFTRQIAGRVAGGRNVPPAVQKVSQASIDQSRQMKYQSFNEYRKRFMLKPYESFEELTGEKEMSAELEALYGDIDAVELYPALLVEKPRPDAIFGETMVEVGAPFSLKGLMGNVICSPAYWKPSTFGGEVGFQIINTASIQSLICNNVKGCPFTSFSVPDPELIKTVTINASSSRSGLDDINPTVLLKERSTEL

[2] = target: T2, recombinant human COX-2 enzyme (Homo sapiens, UniProt P35354); assay: COX-2-mediated PGE2 production in vitro; assay type: biochemical
T2 sequence (P35354 18-604): T1 sequence (P35354 18-604)

[3] = test system: COX-2^+/+ cells; assay: COX-2-mediated PGE2 production ex vivo in COX-2+/+ cells; assay type: cell-based, murine; details: for IC50: Mus musculus, read-out: IC50, suppression of PGE2 synthesis ex vivo
[4] = test system: HT-29 human colon cancer cells; assay: Cell growth of HT-29 cells; assay type: cell-based; details: each at 10 μM; growth curves over 5 days; vs untreated control
[5] = test system: HT-29 colon cancer cells; assay: Soft agar colony formation assay; assay type: cell-based, human; details: HT-29 cells; 10 or 20 μM; 10 days
[6] = test system: JB6 Cl41 cells; details: cited from earlier work
[7] = test system: COX-2^+/+ murine embryonic fibroblasts; assay: Cell growth of COX-2+/+ murine embryonic fibroblasts; details: 10 μM, after 6 days
[8] = test system: COX-2^−/− murine embryonic fibroblasts; assay: Cell growth of COX-2-/- murine embryonic fibroblasts; details: 10 μM, after 6 days
[9] = test system: COX-2; details: ref 7 (Jang et al.); cited from earlier work
[10] = test system: 1.2-dimethylhydrazine-induced colon carcinogenesis; details: rats; 8 mg/kg body weight every day for 30 weeks; cited from earlier work
[11] = test system: colorectal cancer cell lines; details: independent of COX activity; cited from earlier work
[12] = test system: three different human colon cancer cell lines; details: cited from earlier work

In the case of `Oc1cc(O)cc(/C=C/c2cc(O)c(O)c(O)c2)c1` [RSVL-2, 3,3’,4’,5’,5-pentahydroxy-trans-stilbene], the “binding with His-COX-2 (SPR sensograms)” value [1] is reported as “more strongly than with RSVL”, the IC50 [2] is reported as 25 µM and the IC50 [3] is reported as 50 µM. For the same compound, the “inhibition of HT-29 cell growth” value [4] was “inhibited cell growth by day 4”, the “inhibition of anchorage-independent colony formation in soft agar” value (“inhibition … in soft agar” for short) [5] was “even more strongly” and the “inhibitory effect on EGF-induced cell transformation compared with resveratrol” value ([6]; EGF-induced JB6 Cl41 transformation, ref 13 (She et al.)) was “more potent inhibitory effect”. The “growth inhibitory effect on COX-2^+/+ cells” value (from here on “growth inhibitory effect”) [7] was “potent growth inhibitory effects”, the “suppression of growth of COX-2^+/+ cells” value [7] was 80% and the “effect on growth of COX-2^−/− cells” value [8] was “unresponsive”.

For `COc1ccc(/C=C/c2cc(OC)cc(OC)c2)cc1` [RSVL-3, 3,4’,5-trimethoxy-trans-stilbene], the “binding with His-COX-2 (SPR sensograms)” value [1] was “does not bind”, the “inhibition of PGE2 synthesis in vitro” value [2] was “not RSVL-3, inhibited PGE2 synthesis in vitro” and the “suppression of PGE2 synthesis ex vivo” value ([3]; COX-2^+/+ cells) was “not RSVL-3, dose-dependently suppressed PGE2 synthesis”. The “inhibition of HT-29 cell growth” value [4] was “not RSVL-3, inhibited cell growth”, the “inhibition … in soft agar” value [5] was “little effect” and the “growth inhibitory effect” value [7] was “not RSVL-3, exhibited potent growth inhibitory effects”.

For `Oc1ccc(/C=C/c2cc(O)cc(O)c2)cc1` [RSVL, 3,5,4'-trihydroxy-trans-stilbene, reference compound], the IC50 [3] was […], the “inhibition of HT-29 cell growth” value [4] was “inhibited cell growth by day 4” and the “inhibition … in soft agar” value [5] was “inhibited”. The “inhibition of cyclooxygenase activity of COX-2” value [9] was “did not inhibit”, the “concentration range of dose-dependent inhibition of cellular transformation” value ([6]; TPA- or EGF-induced JB6 Cl41 transformation, ref 10 (Huang et al.)) was […] and the “effect on size of tumors” value [10] was “markedly reduce the size of tumors”. For the same compound, the “growth inhibitory effect” value [7] was “potent growth inhibitory effects”, the “suppression of growth of COX-2^+/+ cells” value [7] was 60% and the “effect on growth of COX-2^−/− cells” value [8] was “unresponsive”.

In the case of `Oc1cc(O)cc(/C=C/c2ccc(O)c(O)c2)c1` [Piceatannol], the “effect on cell cycle progression” value [11] is given as “inhibited progression through the S phase”.

In the case of `Oc1ccc([C@@H]2c3c(O)cc4c(c3[C@@H]3c5c(O)cc6c(c5[C@H]2[C@H]3c2ccc(O)cc2)[C@@H](c2cc(O)cc(O)c2)[C@H](c2ccc(O)cc2)O6)[C@@H](c2cc(O)cc(O)c2)[C@H](c2ccc(O)cc2)O4)cc1` [Vaticanol C], the “suppression of cell growth through induction of apoptosis” value [12] is listed as “markedly suppress cell growth”.
